From ChEMBL document CHEMBL5727622, “Heterocyclic compounds used as FGFR inhibitors” (2020)

How the values were obtained:
[1] = molecular target: Fibroblast growth factor receptor 4 (Homo sapiens, UniProt P22455); test: Inhibition Assay: FGFR4:The in vitro activity of FGFR4 was determined by assaying the phosphorylation level of the substrate in the kinase reaction, by means of an HTRF kinase assay kit. The reaction buffer comprised the following components: 5-fold diluted Enzymatic buffer/kinase 5×(main ingredient: 50 mM HEPES, pH 7.0), 5 mM MgCl2, 1 mM DTT; the human recombinant FGFR4 catalytic structural domain protein (amino acids 460-802), diluted with the reaction buffer to a 0.5 ng/μL kinase solution; the substrate reaction solution comprised a biotin labeled tyrosine kinase substrate diluted with the reaction buffer to 500 nM , and 90 μM ATP, and the assay solution comprised an Eu3+ labeled cage-shaped antibody diluted with the assay buffer to 0.125 ng/μL, and 31.25 nM streptavidin labeled XL665).
Sequence of Fibroblast growth factor receptor 4 (P22455 whole entry, the tested form may be a part): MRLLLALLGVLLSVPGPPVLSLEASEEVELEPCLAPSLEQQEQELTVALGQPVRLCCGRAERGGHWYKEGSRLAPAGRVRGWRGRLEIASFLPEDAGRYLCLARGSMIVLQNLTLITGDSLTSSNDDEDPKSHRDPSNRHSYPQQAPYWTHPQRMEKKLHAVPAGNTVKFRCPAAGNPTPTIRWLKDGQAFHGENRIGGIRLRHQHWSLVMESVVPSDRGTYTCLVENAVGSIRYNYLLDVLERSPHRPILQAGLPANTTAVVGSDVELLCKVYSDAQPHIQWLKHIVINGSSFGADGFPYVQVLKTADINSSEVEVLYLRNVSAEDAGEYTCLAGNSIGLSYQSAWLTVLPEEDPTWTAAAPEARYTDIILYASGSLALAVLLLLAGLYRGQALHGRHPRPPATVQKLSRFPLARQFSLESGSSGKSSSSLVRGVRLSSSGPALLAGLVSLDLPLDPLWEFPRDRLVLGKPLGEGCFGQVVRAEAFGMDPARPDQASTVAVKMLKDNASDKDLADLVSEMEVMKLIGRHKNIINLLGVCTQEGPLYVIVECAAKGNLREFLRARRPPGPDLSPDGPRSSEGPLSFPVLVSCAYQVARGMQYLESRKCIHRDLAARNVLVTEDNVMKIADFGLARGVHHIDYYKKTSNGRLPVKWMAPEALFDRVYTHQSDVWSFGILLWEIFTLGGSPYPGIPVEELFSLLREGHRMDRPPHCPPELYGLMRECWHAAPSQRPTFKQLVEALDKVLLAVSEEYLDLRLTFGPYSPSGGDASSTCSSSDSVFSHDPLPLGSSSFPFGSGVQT

[2] = molecular target: Fibroblast growth factor receptor 1 (Homo sapiens, UniProt P11362); test: Inhibition Assay: FGFR1: The in vitro activity of FGFR1 was determined by assaying the phosphorylation level of the substrate in the kinase reaction, by means of an HTRF kinase assay kit. The reaction buffer comprised the following components: 5-fold diluted Enzymatic buffer/kinase 5× (main ingredient: 50 mM HEPES, pH 7.0), 5 mM MgCl2, 1 mM DTT; the human recombinant FGFR1 catalytic structural domain protein (amino acids 308-731) was purified by the company itself, diluted with the reaction buffer to a 0.6 ng/μL kinase solution; the substrate reaction solution comprised a biotin labeled tyrosine kinase substrate diluted with the reaction buffer to 400 nM , and 40 μM ATP, and the assay solution comprised an Eu3+ labeled cage-shaped antibody diluted with the assay buffer to 0.125 ng/μL, and 25 nM streptavidin labeled XL665.
Sequence of Fibroblast growth factor receptor 1 (P11362 whole entry, the tested form may be a part): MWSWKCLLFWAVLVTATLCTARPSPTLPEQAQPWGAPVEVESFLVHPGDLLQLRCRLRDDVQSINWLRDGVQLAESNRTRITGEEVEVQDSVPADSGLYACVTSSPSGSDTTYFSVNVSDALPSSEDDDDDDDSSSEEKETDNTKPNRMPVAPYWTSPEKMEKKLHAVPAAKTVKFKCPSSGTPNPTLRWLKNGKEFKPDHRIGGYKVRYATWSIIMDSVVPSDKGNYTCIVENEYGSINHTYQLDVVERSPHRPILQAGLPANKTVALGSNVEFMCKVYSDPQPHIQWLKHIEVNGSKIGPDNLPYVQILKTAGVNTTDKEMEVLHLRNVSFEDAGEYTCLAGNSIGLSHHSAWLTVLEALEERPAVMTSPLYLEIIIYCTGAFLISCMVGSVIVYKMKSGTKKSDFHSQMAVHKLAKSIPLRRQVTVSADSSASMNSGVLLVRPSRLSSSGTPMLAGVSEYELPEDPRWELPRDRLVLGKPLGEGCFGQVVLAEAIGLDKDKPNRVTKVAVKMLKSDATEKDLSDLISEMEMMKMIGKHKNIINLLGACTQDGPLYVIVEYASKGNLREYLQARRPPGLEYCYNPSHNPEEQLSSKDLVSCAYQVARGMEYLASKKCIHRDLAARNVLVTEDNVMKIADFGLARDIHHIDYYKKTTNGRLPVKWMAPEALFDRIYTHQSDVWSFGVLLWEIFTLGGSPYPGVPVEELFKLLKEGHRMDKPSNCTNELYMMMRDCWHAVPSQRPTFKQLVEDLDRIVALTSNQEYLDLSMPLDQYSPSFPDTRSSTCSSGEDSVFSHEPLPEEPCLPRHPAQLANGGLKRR

[3] = molecular target: Fibroblast growth factor receptor 2 (Homo sapiens, UniProt P21802); test: Inhibition Assay: FGFR2: The in vitro activity of FGFR2 was determined by assaying the phosphorylation level of the substrate in the kinase reaction, by means of an HTRF kinase assay kit. The reaction buffer comprised the following components: 5-fold diluted Enzymatic buffer/kinase 5× (main ingredient: 50 mM HEPES, pH 7.0), 5 mM MgCl2, 1 mM DTT; the human recombinant FGFR2 catalytic structural domain protein (amino acids 400-821) was commercially available from Beijing Sino Biological Inc., diluted with the reaction buffer to a 0.045 ng/μL kinase solution; the substrate reaction solution comprised a biotin labeled tyrosine kinase substrate diluted with the reaction buffer to 800 nM, and 50 μM ATP, and the assay solution comprised an Eu3+ labeled cage-shaped antibody (Cisbio, Catalog number 61T66KLB) diluted with the assay buffer (Cisbio, Catalog number 62SDBRDF) to 0.125 ng/μL, and 50 nM streptavidin labeled XL665.
Sequence of Fibroblast growth factor receptor 2 (P21802 whole entry, the tested form may be a part): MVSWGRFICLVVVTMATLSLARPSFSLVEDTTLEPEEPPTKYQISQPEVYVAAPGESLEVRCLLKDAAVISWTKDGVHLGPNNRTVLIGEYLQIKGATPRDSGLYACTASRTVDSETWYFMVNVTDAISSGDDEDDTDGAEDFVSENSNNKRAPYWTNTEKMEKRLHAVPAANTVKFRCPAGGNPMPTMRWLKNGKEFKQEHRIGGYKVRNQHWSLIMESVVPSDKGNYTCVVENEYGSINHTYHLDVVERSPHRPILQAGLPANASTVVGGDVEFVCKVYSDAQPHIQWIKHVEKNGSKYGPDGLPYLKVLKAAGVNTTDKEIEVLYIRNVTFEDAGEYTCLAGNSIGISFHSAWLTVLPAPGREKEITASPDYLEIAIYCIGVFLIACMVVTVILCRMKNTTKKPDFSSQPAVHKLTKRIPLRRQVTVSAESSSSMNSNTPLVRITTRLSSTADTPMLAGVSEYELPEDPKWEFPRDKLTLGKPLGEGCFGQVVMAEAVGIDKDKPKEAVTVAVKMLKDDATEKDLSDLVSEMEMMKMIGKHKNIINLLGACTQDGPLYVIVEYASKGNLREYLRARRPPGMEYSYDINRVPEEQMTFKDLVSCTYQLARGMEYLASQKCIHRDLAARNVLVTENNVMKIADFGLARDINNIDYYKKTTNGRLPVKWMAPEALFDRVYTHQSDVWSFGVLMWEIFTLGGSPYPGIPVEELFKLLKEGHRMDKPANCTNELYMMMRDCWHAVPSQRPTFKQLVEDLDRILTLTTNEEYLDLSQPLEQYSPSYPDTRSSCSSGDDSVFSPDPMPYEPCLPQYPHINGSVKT

[4] = molecular target: Fibroblast growth factor receptor 3 (Homo sapiens, UniProt P22607); test: Inhibition Assay: FGFR3: The in vitro activity of FGFR3 was determined by assaying the phosphorylation level of the substrate in the kinase reaction, by means of an HTRF kinase assay kit. The reaction buffer comprised the following components: 5-fold diluted Enzymatic buffer/kinase 5×(main ingredient: 50 mM HEPES, pH 7.0), 5 mM MgCl2, 1 mM DTT; the human recombinant FGFR3 catalytic structural domain protein (amino acids 399-806), diluted with the reaction buffer to a 0.3 ng/μL kinase solution; the substrate reaction solution comprised a biotin labeled tyrosine kinase substrate diluted with the reaction buffer to 1000 nM, and 90 μM ATP, and the assay solution comprised an Eu3+ labeled cage-shaped antibody diluted with the assay buffer to 0.125 ng/μL, and 62.5 nM streptavidin labeled XL665.
Sequence of Fibroblast growth factor receptor 3 (P22607 whole entry, the tested form may be a part): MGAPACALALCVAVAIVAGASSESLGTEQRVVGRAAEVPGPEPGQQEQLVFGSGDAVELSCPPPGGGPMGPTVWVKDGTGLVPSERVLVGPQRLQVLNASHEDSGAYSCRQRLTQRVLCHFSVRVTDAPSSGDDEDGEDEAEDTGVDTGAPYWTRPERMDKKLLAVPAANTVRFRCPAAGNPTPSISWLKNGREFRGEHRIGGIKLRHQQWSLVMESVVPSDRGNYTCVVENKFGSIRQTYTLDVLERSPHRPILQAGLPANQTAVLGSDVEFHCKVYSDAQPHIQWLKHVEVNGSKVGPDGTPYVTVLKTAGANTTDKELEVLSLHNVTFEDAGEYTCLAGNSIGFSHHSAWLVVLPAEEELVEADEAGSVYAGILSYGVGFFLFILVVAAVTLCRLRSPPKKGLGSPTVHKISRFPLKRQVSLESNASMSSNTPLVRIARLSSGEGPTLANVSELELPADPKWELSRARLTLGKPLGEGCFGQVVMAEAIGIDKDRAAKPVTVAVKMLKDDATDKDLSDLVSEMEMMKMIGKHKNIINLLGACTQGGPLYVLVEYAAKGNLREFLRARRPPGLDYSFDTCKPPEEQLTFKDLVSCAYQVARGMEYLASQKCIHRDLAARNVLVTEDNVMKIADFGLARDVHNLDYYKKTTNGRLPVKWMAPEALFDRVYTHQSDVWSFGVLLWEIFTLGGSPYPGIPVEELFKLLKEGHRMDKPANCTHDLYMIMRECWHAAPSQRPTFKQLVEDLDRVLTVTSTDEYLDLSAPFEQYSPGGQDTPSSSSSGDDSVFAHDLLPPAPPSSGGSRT

Row | SMILES | IC50 [1] | IC50 [2] | IC50 [3] | IC50 [4]
1 | CC(C)Nc1cc(NC(=O)N(C)c2ccc(CN3CCOCC3=O)c(C=O)n2)ncc1C#N | < 10 nM | > 1000 nM | > 1000 nM | > 1000 nM
2 | COCCNc1cc(NC(=O)N(C)c2ccc(CN3CCOCC3=O)c(C=O)n2)ncc1C#N | < 10 nM | > 1000 nM | > 1000 nM | > 1000 nM
3 | CN1CCN(Cc2ccc(N(C)C(=O)Nc3cc(Cl)c(C#N)cn3)nc2C=O)C(=O)C1 |  | > 1000 nM | > 1000 nM | > 1000 nM
4 | CC(C)Nc1cc(NC(=O)N(C)c2ccc(CN3CCN(C)CC3=O)c(C=O)n2)ncc1C#N | < 10 nM | > 1000 nM | > 1000 nM | > 1000 nM
5 | COCCOc1cc(NC(=O)N(C)c2ccc(CN3CCOCC3=O)c(C=O)n2)ncc1C#N | < 10 nM | > 1000 nM | > 1000 nM | > 1000 nM

The remaining lines, values ahead:

Row | IC50 [1] | IC50 [2] | IC50 [3] | IC50 [4] | SMILES
6 | < 10 nM | > 1000 nM | > 1000 nM | > 1000 nM | COC[C@@H](C)Oc1cc(NC(=O)N(C)c2ccc(CN3CCN(C)CC3=O)c(C=O)n2)ncc1C#N
7 | < 10 nM | > 1000 nM | > 1000 nM | > 1000 nM | C[C@@H](CO)Oc1cc(NC(=O)N(C)c2ccc(CN3CCN(C)CC3=O)c(C=O)n2)ncc1C#N
8 | < 10 nM | > 1000 nM | > 1000 nM | > 1000 nM | COC[C@H](C)Oc1cc(NC(=O)N(C)c2ccc(CN3CCN(C)CC3=O)c(C=O)n2)ncc1C#N
9 | < 10 nM | > 1000 nM | > 1000 nM | > 1000 nM | CC(C)Oc1cc(NC(=O)N(C)c2ccc(CN3CCN(C)CC3=O)c(C=O)n2)ncc1C#N
